Molecular target: T1, human intermediate-conductance, calcium-activated K+ channels (h-IK1) (Homo sapiens, UniProt O15554)
T1 construct: expressed in transfected cells; host or cells: CHO-K1 (ATCC CCL-61), kept under G-418 selection
Assay: Rubidium efflux assay (86Rb+ efflux, CHO-K1 cells expressing h-IK1)
Assay type: cell-based
Details: hIK1 in CHO-K1 cells; 86Rb+ efflux stimulated with ionomycin; drug 0.01-30 μM, 6 min preincubation, 10 min efflux; read-out: IK1 Inhibitory Activity
Method: CHO-K1 cells (American Type Culture Collection, CCL-61) expressing human intermediate-conductance, calcium-activated K^+ channels (h-IK1) are cultured in Ham's F-12 medium (HyClone) supplemented with 10% heat inactivated fetal bovine serum (Nova-Tech) and 400 μg/mL G-418 (Geneticin, Life Technologies), in an incubator at 37° C. with a humidified atmosphere of 5% CO2. Cells are typically sub-cultured twice per week. When the culture flask reaches 70%-90% confluency, the culture medium is removed, cells are rinsed twice with calcium and magnesium-free Dulbecco's phospate buffed saline (PBS) and a 0.05% trypsin/0.5 mM EDTA in HBSS solution is added until cells begin to round up (typically 2-5 min). Twenty four hours prior to the experiment, cells are removed from the culture flask and resuspended in Ham's F-12 medium supplemented with 10% heat inactivated fetal bovine serum, 50 μg/mL streptomycin, 50 U/mL penicillin, 10 mM HEPES, pH 7.2, and plated on 96 well, cell culture treated, flat bottomed trays (TPP 96, 4×10^6 cells per 96 well plate; 100 μL/well). Cells are loaded with ^86Rb^+ by incubating the cells overnight in culture medium containing 1 μCi/ml ^86RbCl (Perkin-Elmer) using a Labsystems Multidrop. On the day of the experiment, Culture media is removed and the cells are washed 4 times with 100 μL per well of zero Ca^2+ Earl's Balanced Salt Solution (EBSS)[composition (mM): NaCl (138), KCl (5.4), MgCl2 (1), glucose (10), HEPES (10), pH 7.4 with 10N NaOH]. Cells were preincubated with drug (0.01-30 μM) in low Ca^2+ EBSS, [composition (mM): NaCl (138), CaCl2 (0.25), KCl (5.4), MgCl2 (1), glucose (10), HEPES (10), pH 7.4 with 10N NaOH] for 6 min. ^86Rb^+ efflux is stimulated by exposing cells to regular EBSS [composition (mM): NaCl (138), CaCl2 (1.8), KCl (5.4), MgCl2 (1), glucose (10), HEPES (10), pH 7.4 with 10N NaOH] supplemented with […] ionomycin (Calbiochem), in the continued presence of drug. After a 10 min efflux period, the EBSS/ionomycin solution is removed from the cells and the ^86Rb^+ content determined by Cherenkov counting (Wallac 1450 Microbeta Trilux liquid scintillation and luminescence counter). Cells are then lysed with 100 μL 0.1% SDS solution per well, and the ^86Rb^+ content of the lysate determined. Percent ^86Rb^+ efflux is calculated according to the following formula: (^86Rb^+ content in EBSS/(^86Rb^+ content in EBSS+^86Rb^+ content of the lysate))×100.

| Structure (SMILES) | IC50 [nM] |
| --- | --- |
| ON=CC(c1ccccc1)(c1ccccc1)c1ccccc1Cl [Example 6, (2-Chloro-phenyl)-diphenyl-acetaldehyde oxime] | < 500 |
| CC(=NO)C(c1ccccc1)(c1ccccc1)c1ccccc1 [Example 34, 1,1,1-Triphenyl-propan-2-one oxime] | > 10000 |
| CCONC(=N)C(c1ccc(F)cc1)(c1ccc(F)cc1)c1ccc(F)cc1 [Example 4, N-Ethoxy-2,2,2-tris-(4-fluoro-phenyl)-acetamidine] | < 500 |
| CON=C(C)C(c1ccccc1)(c1ccccc1)c1ccccc1 [Example 26, 1,1,1-Triphenyl-propan-2-one O-methyl-oxime] | 1000 to 10000 |
| CN=C(OC)C(c1ccccc1)(c1ccc(F)cc1)c1ccc(F)cc1 [Example 29, 2,2-Bis-(4-fluoro-phenyl)-N-methyl-2-phenyl-acetimidic acid methyl ester] | 1000 to 10000 |
| N=C(NO)C(c1cccc(F)c1)(c1cccc(F)n1)c1cccc(F)n1 [Example 14, 2-(3-Fluoro-phenyl)-2,2-bis-(6-fluoro-pyridin-2-yl)-N-hydroxy-acetamidine] | 1000 to 10000 |
| CCON=C(C)C(c1ccccc1)(c1ccccc1)c1ccccc1 [Example 33, 1,1,1-Triphenyl-propan-2-one O-ethyl-oxime] | > 10000 |
| COC(=N)C(c1ccc(F)cc1)(c1ccc(F)cc1)c1ccc(F)cc1 [Example 27, 2,2,2-Tris-(4-fluoro-phenyl)-acetimidic acid methyl ester] | 1000 to 10000 |
| N=C(N)C(c1ccc(F)cc1)(c1ccc(F)cc1)c1ccc(F)cc1 [Example 18, 2,2,2-Tris-(4-fluoro-phenyl)-acetamidine] | 1000 to 10000 |
| N=C(N)C(c1cccc(F)n1)(c1cccc(F)n1)c1cccc(F)n1 [Example 15, 2,2,2-Tris-(6-fluoro-pyridin-2-yl)-acetamidine] | 1000 to 10000 |
| CC(=NN)C(c1ccccc1)(c1ccccc1)c1ccccc1 [Example 25, (1-Methyl-2,2,2-triphenyl-ethylidene)-hydrazine] | 1000 to 10000 |
| N=C(NO)C(c1ccccc1)(c1ccccc1)c1ccccc1 [Example 11, N-Hydroxy-2,2,2-triphenyl-acetamidine] | 500 to 1000 |
| Cc1ccc(C(C(=N)N)(c2cccc(F)c2)c2cccc(F)c2)cn1 [Example 17, 2,2-Bis-(3-fluoro-phenyl)-2-(6-methyl-pyridin-3-yl)-acetamidine] | 1000 to 10000 |
| CC(C)ONC(=N)C(c1ccc(F)cc1)(c1ccc(F)cc1)c1ccc(F)cc1 [Example 20, 2,2,2-Tris-(4-fluoro-phenyl)-N-isopropoxy-acetamidine] | 1000 to 10000 |
| N=C(N)C(c1ccccc1)(c1ccccc1)c1ccccc1 [Example 22, 2,2,2-Triphenyl-acetamidine] | 1000 to 10000 |
| N=C(NO)C(c1cccc(F)n1)(c1cccc(F)n1)c1cccc(F)n1 [Example 30, 2,2,2-Tris-(6-fluoro-pyridin-2-yl)-N-hydroxy-acetamidine] | > 10000 |
| CONC(=N)C(c1ccc(F)cc1)(c1ccc(F)cc1)c1ccc(F)cc1 [Example 19, 2,2,2-Tris-(4-fluoro-phenyl)-N-methoxy-acetamidine] | 1000 to 10000 |
| COc1ccc(C(C(=N)NO)(c2ccccc2)c2ccc(OC)cc2)cc1 [Example 23, N-Hydroxy-2,2-bis-(4-methoxy-phenyl)-2-phenyl-acetamidine] | 1000 to 10000 |
| COc1ccc(C(C(=N)NO)(c2ccc(OC)cc2)c2ccc(OC)cc2)cc1 [Example 31, N-Hydroxy-2,2,2-tris-(4-methoxy-phenyl)-acetamidine] | > 10000 |
| N=C(NO)C(c1ccc(F)cc1)(c1ccc(F)cc1)c1ccc(F)cc1 [Example 3, 2,2,2-Tris-(4-fluoro-phenyl)-N-hydroxy-acetamidine] | < 500 |
| Cc1nc(C(c2ccccc2)(c2ccccc2)c2cccc(F)n2)no1 [Example 16, 2-Fluoro-6-[(5-methyl-[1,2,4]oxadiazol-3-yl)-diphenyl-methyl]-pyridine] | 1000 to 10000 |
| CON=CC(c1ccccc1)(c1ccccc1)c1ccccc1Cl [Example 7, (2-Chloro-phenyl)-diphenyl-acetaldehyde O-methyl-oxime] | < 500 |
| N=C(NN)C(c1ccc(F)cc1)(c1ccc(F)cc1)c1ccc(F)cc1 [Example 10, 2,2,2-Tris-(4-fluoro-phenyl)-N-amino-acetamidine] | 500 to 1000 |

Continued, values first:

| IC50 [nM] | Structure (SMILES) |
| --- | --- |
| 1000 to 10000 | N=C(N)C(c1ccccc1)(c1ccc(F)cc1)c1ccc(F)cc1 [Example 21, 2,2-Bis-(4-fluoro-phenyl)-2-phenyl-acetamidine] |
| 1000 to 10000 | N=C(NO)C(c1ccccc1)(c1ccccc1)c1ccc(O)cc1 [Example 24, N-Hydroxy-2-(4-hydroxy-phenyl)-2,2-diphenyl-acetamidine] |
| < 500 | N=C(NO)C(c1ccccc1)(c1ccc(F)cc1)c1ccccc1F (centres unmarked) [Example 1, 2-(2-Fluoro-phenyl)-2-(4-fluoro-phenyl)-N-hydroxy-2-phenyl-acetamidine] |
| 500 to 1000 | N=C(NO)C(c1ccccc1)(c1ccccc1)c1cccc(F)n1 [Example 13, 2-(6-Fluoro-pyridin-2-yl)-N-hydroxy-2,2-diphenyl-acetamidine] |
| < 500 | N=C(NO)C(c1ccccc1)(c1ccc(F)cc1)c1ccc(F)cc1 [Example 2, 2,2-Bis-(4-fluoro-phenyl)-N-hydroxy-2-phenyl-acetamidine] |
| < 500 | N=C(NO)C(c1ccccc1)(c1ccccc1)c1ccccc1Cl [2-(2-Chloro-phenyl)-N-hydroxy-2,2-diphenyl-acetamidine] |
| 500 to 1000 | COc1ccc(C(C(=N)NO)(c2ccccc2)c2ccccc2)cc1 [Example 12, N-Hydroxy-2-(4-methoxy-phenyl)-2,2-diphenyl-acetamidine] |
| 500 to 1000 | N=C(NN)C(c1ccccc1)(c1ccc(F)cc1)c1ccc(F)cc1 [Example 9, 2,2-Bis-(4-fluoro-phenyl)-N-amino-2-phenyl-acetamidine] |
| > 10000 | N=C(NO)C(c1ccccc1)(c1ccc(O)cc1)c1ccc(O)cc1 [Example 32, N-Hydroxy-2,2-bis-(4-hydroxy-phenyl)-2-phenyl-acetamidine] |
| < 500 | CONC(=N)C(c1ccccc1)(c1ccc(F)cc1)c1ccc(F)cc1 [Example 8, 2,2-Bis-(4-fluoro-phenyl)-N-methoxy-2-phenyl-acetamidine] |
| 1000 to 10000 | COC(=N)C(c1ccccc1)(c1ccc(F)cc1)c1ccc(F)cc1 [Example 28, 2,2-Bis-(4-fluoro-phenyl)-2-phenyl-acetimidic acid methyl ester] |
| < 500 | N=C(NO)C(c1ccc(F)cc1)(c1ccc(F)cc1)c1ccccc1Cl [Example 5, 2-(2-Chloro-phenyl)-2,2-bis-(4-fluoro-phenyl)-N-hydroxy-acetamidine] |

From patent publication US7709533B2, “Imines as ion channel modulators” (Icagen, Inc., priority 2005, dated 2010)
